89 molecules from a melting point compilation (Tetko et al.; mined from patent text by program, amines drawn as free bases though some values may be those of a salt) can be followed below.

As usually defined, the melting point is the temperature, or range, at which the solid turns liquid.

Where only a bound is given, the exact number is not on record here.

In the case of `CN(C)c1ccc(-c2cc(C(F)(F)F)c3c(-c4ccccc4)n[nH]c3n2)cc1`, the melting point turned out to be 227 °C.
`COc1ccc2c(c1)CCC2=NNS(=O)(=O)c1ccc(C)cc1` had a melting point of 195 to 196 °C.
Consider `CN1CCC(OC(c2cccc(SCC3=NCCN3)c2)c2nc3ccccc3[nH]2)CC1` (centres undefined), for which the melting point was found to be 62 °C.
For `Clc1ccccc1-c1nc(-c2ccc3c(c2)OCO3)c(-c2ccc3c(c2)OCO3)[nH]1` the value was 168 to 170 °C; for `CC(=O)Nc1ccc2c(c1)[nH]c(=O)c(=O)n2C`, 390 °C; for `Cc1cccc(C)c1N1CC(C)N(c2cccc(C(F)(F)F)c2)C1=N` (centres undefined), 160 to 166 °C.
With `COC(=O)c1ccn2cc(C)nc2c1`, the melting point was determined as 149 °C.
Regarding `CC(C)(O)CCn1c2ccccc2c2cc(NC(=O)c3ccccc3C(F)(F)F)ccc21`, the melting point is 188 to 189 °C.
`Cc1noc(NS(=O)(=O)c2ccccc2Br)c1Br` had a melting point of 84 to 86 °C.
For `OC1C2=C(CCN(CCCCc3c[nH]c4ccccc34)C2)c2ccccc21` (centres undefined) the value was 205 to 208 °C.
Consider `Nc1nc(N)c2ncn(C3C=CC(CO)C3)c2n1` (centres undefined), for which the melting point fell in the range of 152 to 155 °C.
The molecule `COc1ccc2[nH]c(C(=O)N3CCc4cc(C(=O)NO)ccc4C3)cc2c1` returned a melting point of 156 °C.
In turn, `O=c1c2c(cnn1Cc1ccccc1)C(Cc1ccccc1)NCCO2` (centres undefined) had a melting point of 70 °C.
Regarding `Oc1ccc(C2COc3cc4c(cc3C2)OCO4)cc1` (centres undefined), the melting point was 139 to 140 °C.
For the molecule `COC(=O)c1ccc(Cn2c(C(=O)C3CCN(CCC4(c5ccccc5)CCN(C(=O)c5cc(OC)c(OC)c(OC)c5)C4)CC3)nc3ccccc32)cc1` (centres undefined), the melting point fell in the range of 92 to 96 °C.
Consider `Cc1ccccc1CNc1nc(Cl)nc2ccccc12`, for which the melting point lay within 215 to 217 °C.
Regarding `CNC1=NN(C(=O)c2cccc(C(F)(F)F)c2)C(C)(C)S1`, the melting point lay in the range of 111 to 115 °C.
For `CC(Cl)(Cl)C(NC(=O)c1cc(F)cc(F)c1)NC(=NC#N)Nc1ccc(Cl)nc1` (centres undefined) the value was 195 to 196 °C; for `O=C(O)C(=O)c1ccc(OCCSc2ccccc2)cc1`, 72 to 73 °C; for `C=C(C)c1ccc(-c2ccc(OC(C)=O)cc2)cc1`, 131 to 132 °C.
`CCc1cccc2c1CCNC2=O` had a melting point of 123 to 126 °C.
The molecule `Cn1c(/C=C/C(O)CC(O)CC(=O)O)c(-c2ccccc2)c2ccccc2c1=O` (centres undefined) displayed a melting point of 170 °C.
Under `CCCCOC(=O)C(C)(NC(=O)c1cc([N+](=O)[O-])cc([N+](=O)[O-])c1)C(C)C` (centres undefined) stands 110 to 113 °C.
Molecule `Cc1cc(O)nc(Br)c1` had a melting point of 152 °C.
For `COc1ccc(SSc2ccc(OC)cc2C(=O)Nc2ccc(S(N)(=O)=O)cc2)c(C(=O)Nc2ccc(S(N)(=O)=O)cc2)c1` the value was 242 to 243 °C; for `CCOC(=O)c1ncc2[nH]c3ccc(Br)cc3c2c1COC`, 207 to 209 °C.
`COc1ccc(-c2ccc3c(c2)c2c(Cl)ccnc2n3S(=O)(=O)c2ccccc2)cc1` yielded a melting point of 209 to 211 °C.
For `NS(=O)(=O)C12CC3CC(CC(C3)C1)C2` the value was 191 to 193 °C.
On to `COC(=O)c1ccccc1NS(=O)(=O)c1nc2nc(C)cc(C)n2n1`, for which the melting point turned out to be 170 °C.
The molecule `CCOP(=O)(OCC)C(C)(C)CC1(C)NC(=O)NC1=O` (centres undefined) gave a melting point of 142 to 146 °C.
Regarding `O=C(CCCCO)c1cccnc1`, the melting point lay in the range of 36 to 38 °C.
As for `CCc1nc2cc(S(N)(=O)=O)c(Cl)cc2n1-c1ccc(CCOC(=O)NS(=O)(=O)c2ccc(C)cc2)cc1`, the melting point was in the range of 110 to 115 °C.
Regarding `CCn1ccc2c(C)nc3c(Br)cnn3c21`, the melting point fell in the range of 113 to 114 °C.
Turning to `COC(=O)CC(N)c1cc2ccccc2nc1Cl` (centres undefined), the melting point was in the range of 103 to 106 °C.
In turn, `CC1CCCN(CCNc2ccnc3cc(Cl)ccc23)C1` (racemic) gave a melting point of 148 to 151 °C.
Molecule `CCCn1ncc2c(C3C(=O)Nc4ccc(C#N)cc43)ncnc21` (centres undefined) gave a melting point of over 300 °C.
`CS(=O)(=O)Nc1cccc(OCc2c[nH]cn2)c1` yielded a melting point of 178 to 180 °C.
As to `O=S(=O)(Cc1ccccc1)c1ncc(Cl)cn1`, the melting point is 122 to 124 °C.
Take `O=C(Nc1ccc(CCc2ccc(O)c(O)c2)cc1)C(=O)c1sc2ccccc2c1O`: the melting point fell in the range of 193 to 195 °C.
Turning to `O=C(O)Cc1c(Cl)nc(-c2ccc([N+](=O)[O-])cc2)n1Cc1ccccc1`, the melting point lay within 180 to 183 °C.
`Cc1oc(C2CC2)nc1COc1ccc(CC(OC(C)C)C(=O)O)c2sccc12` (centres undefined): the melting point fell in the range of 71 to 72 °C.
The molecule `O=C1N/C(=C\C2CC2)C(O)=C1c1ccccc1` registered a melting point of 167 to 170 °C.
Under `Cc1cc(C)c2c(c1C)NC(C)(CCCC(C)CCCC(C)CCCC(C)C)CC2` (centres undefined) stands 72 to 73 °C.
As to `CCc1ccc(NC(C)=O)cc1`, the melting point fell in the range of 94 to 96 °C.
In the case of `Cc1nc2n(c1C)CCCC2=O`, the melting point stood at 178 °C.
`COC(=O)c1ccc(C(=O)NCc2cc(OC)cc(OC)c2)cc1Cl`: the melting point was 101 to 103 °C.
Molecule `Cn1c(C(F)(F)F)cc(=O)n(-c2ccc(Cl)c(C=CC#N)c2)c1=O` displayed a melting point of 263 to 265 °C.
Under `CCCNC(=O)NCc1ccc2c(c1)C(=O)N(C1CCC(=O)NC1=O)C2=O` (centres undefined) stands 166 to 168 °C; under `COC(=O)CCC(=O)N[C@@H](CO)c1ccccc1`, 59 to 61 °C; under `CCOC(=O)c1sc(C)c(C(=O)OCC)c1OC`, 109 to 111 °C.
Turning to `CN(C)CCSC1=Nc2ccc(Br)cc2C(c2ccccc2F)=NC1`, the melting point lay within 105 to 108 °C.
Take `O=S(=O)(CCc1ccc(Cl)cc1)CCc1ccc(Cl)cc1`: the melting point is 42 to 43 °C.
Regarding `CC(C)NC(=O)c1coc2ccccc2c1=O`, the melting point was in the range of 104 to 106 °C.
The molecule `O=C(O)COc1ccc(CCc2ccc(N3CCNCC3)cc2)cc1` yielded a melting point of over 250 °C.
Under `N#Cc1cccc(-c2ccc(-c3cccc(C#N)c3)o2)c1` stands 163 to 164 °C; under `CC(C)(C)CN1C(=O)C(=O)N(c2cccnc2)C1=S`, 111 to 113 °C; under `Cc1cc(Nc2ccc(C(C)(C)C)cc2)c2[nH]ncc2n1`, 258 to 262 °C.
`O=[N+]([O-])c1cnc2ccc(F)cc2c1O` came in with a melting point of 313 °C.
In the case of `NC(=O)c1ccccc1N1CCc2cc(Cl)cc([N+](=O)[O-])c21`, the melting point lay within 225 to 226 °C.
`Nc1n[nH]c2cc(CN3CCN(S(=O)(=O)c4cc5ccc(Cl)cc5s4)CC3=O)ccc12` registered a melting point of 274 to 276 °C.
Take `CNC(=O)OC(C(Oc1ccc(Cl)cc1Cl)n1cncn1)C(C)(C)CF` (centres undefined): the melting point fell in the range of 124 to 127 °C.
Consider `CN(Cc1ccc(NC(=O)C2=Cc3cc(-c4ccc(C(C)(C)C)cc4)ccc3OCC2)cc1)C1CCOCC1`, for which the melting point fell in the range of 193 to 194 °C.
In the case of `OC1CSC(Oc2cnc(-c3ccncc3)c(Cl)c2)C(O)C1O` (centres undefined), the melting point is 226 °C.
Molecule `CC1NC(=Nc2ccccc2N2CCOCC2)NC1C` (centres undefined) yielded a melting point of 142 to 143 °C.
`C=CCCCc1cnc(-c2ccc(F)cc2)nc1` displayed a melting point of 21.8 °C.
`Cc1nn(-c2c(Cl)cc(C(F)(F)F)cc2Cl)c(N)c1SC(Cl)(Cl)Cl` returned a melting point of 156 °C.
Take `CC(=O)c1ccc(C2CCN(C(C)=O)CC2)c(N)c1`: the melting point was 220 to 222 °C.
`c1cc(C2NCCc3sccc32)ccn1` (centres undefined) gave a melting point of 81.8 to 83.8 °C.
As for `CCCOc1ccc2c(c1)[C@@H](c1ccc(OC)cc1OCCO)[C@@H](C(=O)OC)[C@H]2c1ccc2c(c1)OCO2` (racemic), the melting point lay within 165 to 168 °C.
Molecule `CCNC(=O)c1ccc(CN2C(=O)C3(COc4cc5c(cc43)CCO5)c3ccccc32)cc1` (centres undefined) showed a melting point of 190 to 191 °C.
Take `CCOc1ccc(C=CC(=O)c2c(O)cc(OCC)cc2OCC)cc1`: the melting point amounted to 131 °C.
For `CC1C=CC=CN2C3=C(C(=O)CCC3)N(C(=O)Nc3ccccc3F)C12` (centres undefined), the melting point was in the range of 139 to 141 °C.
In the case of `COC(=O)C=C(Nc1ccc(CC(=O)OC)cc1)C(F)(F)F`, the melting point lay in the range of 50 to 51 °C.
Take `Cc1ccc2c(c1)C(=O)N(CCO[N+](=O)[O-])CO2`: the melting point lay in the range of 76 to 78 °C.
On to `C=CC1(c2ccccc2)OC(C(=O)OC)Oc2ccc(Cl)cc21` (centres undefined), for which the melting point stood at 78 °C.
Under `COC(=O)c1nc2nn(-c3ccccc3)c(C)c2c(N)c1C(=O)OC` stands 190 to 191 °C.
For `Cc1cc([N+](=O)[O-])c(NC(C)C)c([N+](=O)[O-])c1C(C)C` the value was 54 to 55 °C; for `Cc1cc(C)c(C2C(=O)N(C)C3(CCN(N(C)C)CC3)C2=O)c(C)c1` (centres undefined), over 195 °C.
The molecule `Cn1cc(C(O)(c2ccc3c(cnn3C(=O)C3CCC3)c2)C(F)(F)F)c2ccccc21` (centres undefined) displayed a melting point of 79 to 81 °C.
The molecule `O=[N+]([O-])c1ccc(OC(c2c(Cl)cccc2Cl)C(F)(F)F)cc1` (centres undefined) gave a melting point of 108 °C.
Molecule `NC(=O)NN=Cc1ccc(OC2CCCCCC2)cc1` showed a melting point of 215 to 216 °C.
As to `CC1(COc2ccc(CC3SC(=O)NC3=O)cc2)CCC(=O)CC1` (centres undefined), the melting point lay within 134 to 135 °C.
`CCCCc1oc2ccccc2c1-c1ncc(-c2ccc3c(Br)c(OCc4ccc(C(=O)O)cc4)ccc3c2)o1`: the melting point was 281 to 283 °C.
For `O=c1c2c(c3cccnc3n1-c1ccccc1)OCC(O)C2` (centres undefined) the value was 296 to 298 °C; for `CC(C)(C)NS(=O)(=O)c1cccc(NC(=O)c2cnn3c(C4CC4)cc(-c4ccc(C(F)(F)F)cc4)nc23)c1`, 258 to 259 °C; for `CN(C)C1(c2ccccc2)CCC(c2[nH]c3ccccc3c2C2CC2)CC1` (centres undefined), 238 to 245 °C.
`CCOC(=O)CS(=O)(=O)Cc1cccc(-c2c(CC(=O)Nc3ccc(F)cc3C(F)(F)F)c(=O)oc3cc(Cl)c(C)cc23)c1` returned a melting point of 230 to 231 °C.
For `CNC(=O)[C@H](C)C[C@H](O)[C@H](CC1CCCCC1)NC(=O)[C@H](Cc1cscn1)NC(=O)[C@@H](CC(=O)N1CCOCC1)Cc1ccccc1` the value was 130 to 132 °C; for `CCc1csc2[nH]c(=O)c(=O)[nH]c12`, over 300 °C.
